In paper PMC9207808 (ACS Chemical Biology, 2022):
Residues, ends and D or L forms follow the SMILES beside them.

Legend:
[1] = system: S. Typhimurium (14028) Δphd-doc::Km strains coexpressing DocSTm; experiment: Growth rescue experiment in S. Typhimurium; assay type: cell-based; conditions: coexpression of DocSTm (pBAD33, arabinose) and Phd construct (pCA24N, basal expression); OD600 over time, M9 minimal medium; average of three independent experiments
Description: The cotransformations above were also performed with an empty pBAD33 plasmid, as a control for the absence of DocSTm expression.
For the growth rescue experiment, overnight (1% tryptone, 0.5% yeast extract, 0.5% NaCl, 1% glucose, 100 μg/mL of carbenicillin, and 34 μg/mL of chloramphenicol) cultures of the generated S. Typhimurium strains were diluted to an OD600 of approximately 0.006 into fresh M9 minimal medium supplemented with 0.5% or 1% arabinose, 0.4% glycerol, 0.4% casamino acids, 100 μg/mL of carbenicillin, and 34 μg/mL of chloramphenicol. Cell growth at a given time was monitored at OD600 with a Genesys 140 Visible Spectrophotometer (Thermo Scientific).

DocSTm [2] = experiment: Differential scanning fluorimetry (thermal stabilisation of Doc); assay type: binding, S. Typhimurium; conditions: for melting temperature shift ΔTm: DSF, DocSTm 5 μM, analyte 50 μM, Tm with analyte minus Tm of free DocSTm (42.9 ± 0.9 °C), SYPRO Orange, 20 mM K2HPO4, 50 mM (NH4)2SO4, pH 8.0, triplicate; for Average Tm / Tm: DocSTm 5 µM + 50 µM binder; for Average Tm: average of 3 replicates
Outline: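 Tm values come from fitting the sigmoidal melt region to a Boltzmann function. Doc (5 μM final) was ramped 25–95 °C with SYPRO Orange (3× final) in pH 8.0 buffer of 20 mM K2HPO4 and 50 mM (NH4)2SO4; each condition in triplicate.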

DocSTm [3] = experiment: Dot blot phosphorylation assay (EF-Tu phosphorylation by Doc); assay type: biochemical, S. Typhimurium; conditions: DocSTm 1 μM, EF-TuSTm 3 μM, ATP 1 mM; for inhibition of EF-TuSTm phosphorylation by DocSTm (in words): α-pThr, inhibitor 10 μM to 5 nM (3-fold dilutions), 16 h at RT
Description: Samples were prepared to a final volume of 10 μL. […] Samples were incubated for 16 h at RT and subsequently spotted on a nitrocellulose membrane. Phosphorylated EF-Tu was detected by immunodecoration using a rabbit monoclonal antiphosphothreonine antibody (Abcam, ab218195) at 1:2000 dilution (1 h at 4 °C), followed by incubation with a goat antirabbit IgG (H+L) HRP conjugate antibody (Advansta) at 1:10 000 dilution (1 h at RT). Chemiluminescence was developed using the HRP Luminata kit (Merck, WBLUR0100) and captured by an ImageQuant LAS4000 Western blot imaging system (Cytiva).

DocSTm [4] = experiment: Surface plasmon resonance binding to immobilised Doc; set-up: species or system S. Typhimurium; conditions: for koff × 10^-6 / kon × 10^6: 1:1 kinetic fit, mean ± SD of at least 3 replicates; for kon × 10^6: single-cycle kinetics (multicycle for PhdSTm1-73); for Half-life of the complex: t1/2 = ln2 / koff; for fold decrease in affinity (given as decrease/loss in Kd) compared with peptide 1: SPR Kd relative to wild-type peptide 1
Outline: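 Binding constants are means ± SD of at least three replicates: steady-state Kd directly, or Kd calculated from kinetic kon and koff. Sensorgrams were double-referenced and fitted 1:1 after 80 s analyte injections (30 μL/min), either multicycle or single-cycle, over NTA-immobilised Doc. Running buffer was HEPES/500 mM NaCl/EDTA/Tween pH 8.0 at 22 °C.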

[5] = SPR, kinetic fit, KD calculated from mean koff and kon, SD propagated, 22 °C, pH 8.0
[6] = SPR multicycle, steady-state fit, replicate 1
[7] = SPR multicycle, steady-state fit, replicate 2
[8] = SPR multicycle, steady-state fit, replicate 3
[9] = SPR, multicycle kinetics, steady-state 1:1 fit, mean ± SD of 3 replicates

Compound	rescue of Salmonella growth from DocSTm-induced growth inhibition (in words) [1]	melting temperature shift ΔTm (DocSTm [2]) [°C]	Average Tm (DocSTm [2]) [°C]	Tm (DocSTm [2]; replicate 1) [°C]	Tm (DocSTm [2]; replicate 2) [°C]	Tm (DocSTm [2]; replicate 3) [°C]	inhibition of EF-TuSTm phosphorylation by DocSTm (in words) (DocSTm [3])	Kd (DocSTm [4]; SPR kinetic fit, replicate 1) [nM]	Kd (DocSTm [4]; SPR kinetic fit, replicate 2) [nM]	Kd (DocSTm [4]; SPR kinetic fit, replicate 3) [nM]	koff × 10^-6 (DocSTm [4]; SPR, 22 °C, pH 8.0)	kon × 10^6 (DocSTm [4]; SPR, 22 °C, pH 8.0)	Half-life of the complex (DocSTm [4]) [h]	Kd (DocSTm [4]; [5]) [nM]	fold decrease in affinity (given as decrease/loss in Kd) compared with peptide 1 (DocSTm [4])	Kd (DocSTm [4]; [6]) [nM]	Kd (DocSTm [4]; [7]) [nM]	Kd (DocSTm [4]; [8]) [nM]	Kd (DocSTm [4]; [9]) [nM]	other results
CC[C@H](C)[C@H](NC(=O)[C@H](C)NC(=O)[C@H](C)NC(=O)[C@H](Cc1ccccc1)NC(=O)[C@H](CCC(=O)O)NC(=O)[C@H](CC(=O)O)NC(=O)[C@H](CC(=O)O)NC(=O)[C@H](CCSC)NC(=O)[C@H](Cc1c[nH]c2ccccc12)NC(C)=O)C(=O)N[C@@H](CCSC)C(=O)N[C@@H](C)C(=O)N[C@H](C(=O)N[C@@H](Cc1c[nH]cn1)C(=O)NCC(=O)N[C@@H](CC(N)=O)C(=O)N[C@@H](CCC(=O)O)C(=O)N[C@@H](CC(C)C)C(=O)N[C@@H](CCCNC(=N)N)C(=O)N[C@@H](CCC(=O)O)C(=O)N[C@@H](CC(C)C)C(=O)N[C@@H](C)C(=O)N[C@@H](CC(=O)O)C(=O)N[C@@H](CCCCN)C(=O)O)C(C)C [peptide 1] (Ac-WMDDEFAAIMAVHGNELRELADK-OH)	only rescued growth after a delay and longer incubation times of 16–18 h	28.8 ± 0.9	71.7 ± 0.1	71.8	71.5	71.6	comparable inhibition of the kinase activity	0.0734	0.0838	0.0591	91 ± 11 ×10^-6 s-1	1.250 ± 0.259 ×10^6 M-1 s-1	2.1 ± 0.3	–	–	–	–	–	–	concentration at which EF-TuSTm phosphorylation is fully inhibited (DocSTm [3]): ≥ 1 µM; Kd (DocSTm [4]; SPR kinetic fit, replicate 4): 0.0819 nM
CC[C@H](C)[C@H](NC(=O)[C@H](C)NC(=O)[C@H](C)NC(=O)[C@H](Cc1ccccc1)NC(=O)[C@H](CCC(=O)O)NC(=O)[C@H](CC(=O)O)NC(=O)[C@H](C)NC(=O)[C@H](CCSC)NC(=O)[C@H](Cc1c[nH]c2ccccc12)NC(C)=O)C(=O)N[C@@H](CCSC)C(=O)N[C@@H](C)C(=O)N[C@H](C(=O)N[C@@H](Cc1c[nH]cn1)C(=O)NCC(=O)N[C@@H](CC(N)=O)C(=O)N[C@@H](CCC(=O)O)C(=O)N[C@@H](CC(C)C)C(=O)N[C@@H](CCCNC(=N)N)C(=O)N[C@@H](CCC(=O)O)C(=O)N[C@@H](CC(C)C)C(=O)N[C@@H](C)C(=O)N[C@@H](CC(=O)O)C(=O)N[C@@H](CCCCN)C(=O)O)C(C)C [peptide 3] (Ac-WMADEFAAIMAVHGNELRELADK-OH; C-terminus assumed)	a faster recovery was achieved	25.6 ± 0.9	68.5 ± 0.3	68.3	68.4	68.8	inhibited DocSTm at similar concentrations to peptide 1	0.0121	0.0166	0.00992	65 ± 18 ×10^-6 s-1	5.073 ± 0.369 ×10^6 M-1 s-1	2.9 ± 0.8	0.013	–	–	–	–	–	improvement in koff compared with 1 (DocSTm [4]; SPR): ~1.5 fold; improvement in kon compared with 1 (DocSTm [4]; SPR): ~4 fold; gain of affinity compared to peptide 1 (DocSTm [4]; SPR Kd relative to peptide 1): greater than 5 fold
CC[C@H](C)[C@H](NC(=O)[C@H](C)NC(=O)[C@H](C)NC(=O)[C@H](Cc1ccccc1)NC(=O)[C@H](CCC(=O)O)NC(=O)[C@H](CC(=O)O)NC(=O)[C@H](CC(=O)O)NC(=O)[C@H](CCSC)NC(=O)[C@H](Cc1c[nH]c2ccccc12)NC(C)=O)C(=O)N[C@@H](C)C(=O)N[C@@H](C)C(=O)N[C@H](C(=O)N[C@@H](Cc1c[nH]cn1)C(=O)NCC(=O)N[C@@H](CC(N)=O)C(=O)N[C@@H](CCC(=O)O)C(=O)N[C@@H](CC(C)C)C(=O)N[C@@H](CCCNC(=N)N)C(=O)N[C@@H](CCC(=O)O)C(=O)N[C@@H](CC(C)C)C(=O)N[C@@H](C)C(=O)N[C@@H](CC(=O)O)C(=O)N[C@@H](CCCCN)C(=O)O)C(C)C [peptide 8] (Ac-WMDDEFAAIAAVHGNELRELADK-OH; C-terminus assumed)	fully rescued Salmonella growth after 18 h of culture	20.8 ± 1.0	63.7 ± 0.4	64.1	63.3	63.7	–	0.67	0.611	0.485	1223 ± 504 ×10^-6 s-1	2.221 ± 1.307 ×10^6 M-1 s-1	0.16 ± 0.6	0.553 ± 0.397	8- to 30 fold	–	–	–	–	–
CC[C@H](C)[C@H](NC(=O)[C@H](C)NC(=O)[C@H](C)NC(=O)[C@H](Cc1ccccc1)NC(=O)[C@H](CCC(=O)O)NC(=O)[C@H](CC(=O)O)NC(=O)[C@H](CC(=O)O)NC(=O)[C@H](CCSC)NC(=O)[C@H](Cc1c[nH]c2ccccc12)NC(C)=O)C(=O)N[C@@H](CCSC)C(=O)N[C@@H](C)C(=O)N[C@H](C(=O)N[C@@H](C)C(=O)NCC(=O)N[C@@H](CC(N)=O)C(=O)N[C@@H](CCC(=O)O)C(=O)N[C@@H](CC(C)C)C(=O)N[C@@H](CCCNC(=N)N)C(=O)N[C@@H](CCC(=O)O)C(=O)N[C@@H](CC(C)C)C(=O)N[C@@H](C)C(=O)N[C@@H](CC(=O)O)C(=O)N[C@@H](CCCCN)C(=O)O)C(C)C [peptide 10] (Ac-WMDDEFAAIMAVAGNELRELADK-OH; C-terminus assumed)	provided only a partial rescue	20.9 ± 1.0	63.7 ± 0.4	63.3	63.7	64.2	–	–	–	–	–	–	–	–	~300 fold	12.2 ± 1.8	13.1 ± 1.4	40 ± 2.87	21.8 ± 15.8	–
CC[C@H](C)[C@H](NC(=O)[C@H](C)NC(=O)[C@H](C)NC(=O)[C@H](Cc1ccccc1)NC(=O)[C@H](CCC(=O)O)NC(=O)[C@H](CC(=O)O)NC(=O)[C@H](CC(=O)O)NC(=O)[C@H](CCSC)NC(=O)[C@H](Cc1c[nH]c2ccccc12)NC(C)=O)C(=O)N[C@@H](CCSC)C(=O)N[C@@H](C)C(=O)N[C@H](C(=O)N[C@@H](Cc1c[nH]cn1)C(=O)NCC(=O)N[C@@H](CC(N)=O)C(=O)N[C@@H](CCC(=O)O)C(=O)N[C@@H](C)C(=O)N[C@@H](CCCNC(=N)N)C(=O)N[C@@H](CCC(=O)O)C(=O)N[C@@H](CC(C)C)C(=O)N[C@@H](C)C(=O)N[C@@H](CC(=O)O)C(=O)N[C@@H](CCCCN)C(=O)O)C(C)C [peptide 14] (Ac-WMDDEFAAIMAVHGNEARELADK-OH; C-terminus assumed)	unable to rescue growth	14.3 ± 0.9	57.2 ± 0.2	57.4	57.2	57.0	–	–	–	–	–	–	–	–	~300 fold	25 ± 0.5	23.9 ± 0.94	15.4 ± 2.13	21.4 ± 5.25	–
PhdSTm: full-length wild-type Phd antitoxin protein of S. Typhimurium	prevented Doc-induced growth inhibition	–	–	–	–	–	no phosphorylation was detected	–	–	–	–	–	–	–	–	–	–	–	–	Half-life of the complex (DocSTm [4]; listed as PhdSTm1-73): 6.7 ± 1.4 h
